Source: ChEMBL document CHEMBL1201862, “PubChem BioAssay data set” (2004)
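Five compound concentrations were applied to cells in 96-well plates for 48 hours; endpoints were derived by simple linear interpolation of the resulting dose-response curve. Abbreviation: GI50, concentration required for 50% inhibition of growth.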 Activity calls are given as the source filed them. Cut-off read from the data, not from the text of the source: active = GI50 up to about 1.1 µM and inactive = higher.

How the values were obtained:
Test in all cases: NCI tumour cell line growth inhibition, 48 h
[1] = system: OVCAR-8
[2] = system: TK-10
[3] = system: CAKI-1
[4] = system: OVCAR-3
[5] = system: A549
[6] = system: EKVX
[7] = system: NCI/ADR-RES
[8] = system: M14
[9] = system: HCT-15
[10] = system: SK-MEL-2
[11] = system: OVCAR-5
[12] = system: MDA-MB-231
[13] = system: COLO 205
[14] = system: SK-OV-3
[15] = system: SNB-75
[16] = system: RPMI-8226
[17] = system: UO-31
[18] = system: MDA-MB-435
[19] = system: UACC-62
[20] = system: SF-295
[21] = system: HOP-62
[22] = system: Malme-3M
[23] = system: U-251
[24] = system: T47D
[25] = system: Hs-578T
[26] = system: PC-3
[27] = system: LOX IMVI
[28] = system: ACHN
[29] = system: SNB-19
[30] = system: MDA-N
[31] = system: 786-0
[32] = system: SK-MEL-5
[33] = system: HCT-116
[34] = system: MOLT-4
[35] = system: IGROV-1
[36] = system: KM12
[37] = system: K562
[38] = system: SR
[39] = system: SW-620
[40] = system: UACC-257
[41] = system: SK-MEL-28
[42] = system: SF-268
[43] = system: HCC 2998
[44] = system: A498
[45] = system: RXF 393
[46] = system: CCRF-CEM
[47] = system: OVCAR-4
[48] = system: BT-549
[49] = system: HT-29
[50] = system: HOP-92
[51] = system: DU-145
[52] = system: HL-60
[53] = system: MCF7
[54] = system: SN12C
[55] = system: NCI-H226
[56] = system: SF-539
[57] = system: NCI-H460
[58] = system: NCI-H23
[59] = system: NCI-H522

N#CCCN(CCCN(CCCN(C(=O)Nc1ccccc1)c1ccccc1)C(=O)Nc1ccccc1)C(=O)Nc1ccccc1
GI50 [1]: > 8.75 µM (inactive) | GI50 [2]: > 8.75 µM (inactive) | GI50 [3]: > 8.75 µM (inactive) | GI50 [4]: > 8.75 µM (inactive) | GI50 [5]: > 8.75 µM (inactive) | GI50 [6]: > 8.75 µM (inactive) | GI50 [7]: > 8.75 µM (inactive) | GI50 [8]: > 8.75 µM (inactive) | GI50 [9]: > 100 µM | GI50 [10]: > 8.75 µM (inactive) | GI50 [11]: > 8.75 µM (inactive) | GI50 [12]: > 8.75 µM (inactive) | GI50 [13]: > 8.75 µM (inactive) | GI50 [14]: > 8.75 µM (inactive) | GI50 [15]: > 8.75 µM (inactive) | GI50 [16]: 3.44 µM (inactive) | GI50 [17]: > 8.75 µM (inactive) | GI50 [18]: > 8.75 µM (inactive) | GI50 [19]: > 8.75 µM (inactive) | GI50 [20]: > 8.75 µM (inactive) | GI50 [21]: > 8.75 µM (inactive) | GI50 [22]: > 8.75 µM (inactive) | GI50 [23]: > 100 µM (inactive) | GI50 [24]: > 8.75 µM (inactive) | GI50 [25]: 73.5 µM (inactive) | GI50 [26]: > 8.75 µM (inactive) | GI50 [27]: > 100 µM (inactive) | GI50 [28]: > 8.75 µM (inactive) | GI50 [29]: > 8.75 µM (inactive) | GI50 [30]: > 8.75 µM (inactive) | GI50 [31]: > 8.75 µM (inactive) | GI50 [32]: > 8.75 µM (inactive) | GI50 [33]: > 8.75 µM (inactive) | GI50 [34]: > 8.75 µM (inactive) | GI50 [35]: > 8.75 µM (inactive) | GI50 [36]: > 8.75 µM (inactive) | GI50 [37]: > 8.75 µM (inactive) | GI50 [38]: 0.998 µM (active) | GI50 [39]: > 8.75 µM (inactive) | GI50 [40]: > 8.75 µM (inactive) | GI50 [41]: > 8.75 µM (inactive) | GI50 [42]: > 8.75 µM (inactive) | GI50 [43]: > 100 µM (inactive) | GI50 [44]: > 8.75 µM (inactive) | GI50 [45]: > 8.75 µM (inactive) | GI50 [46]: 6.14 µM (inactive) | GI50 [47]: > 100 µM (inactive) | GI50 [48]: > 8.75 µM (inactive) | GI50 [49]: > 8.75 µM (inactive) | GI50 [50]: 20.2 µM (inactive) | GI50 [51]: > 8.75 µM (inactive) | GI50 [52]: > 8.75 µM (inactive) | GI50 [53]: > 8.75 µM (inactive) | GI50 [54]: > 8.75 µM (inactive) | GI50 [55]: 31.4 µM (inactive) | GI50 [56]: > 8.75 µM (inactive) | GI50 [57]: > 8.75 µM (inactive)

Cc1ccc(/C=C2\CCS(=O)(=O)c3ccccc3C2=O)cc1
GI50 [1]: 13.9 µM (inactive) | GI50 [2]: 16.6 µM (inactive) | GI50 [3]: 18.3 µM (inactive) | GI50 [4]: 17.2 µM (inactive) | GI50 [5]: 35.6 µM (inactive) | GI50 [6]: 17.6 µM (inactive) | GI50 [7]: 11.5 µM (inactive) | GI50 [8]: 26.1 µM (inactive) | GI50 [9]: 11.9 µM | GI50 [10]: 21.9 µM (inactive) | GI50 [11]: 26.7 µM (inactive) | GI50 [12]: 16.9 µM (inactive) | GI50 [13]: 15.2 µM (inactive) | GI50 [14]: 21.7 µM (inactive) | GI50 [15]: 16.7 µM (inactive) | GI50 [16]: 31.4 µM (inactive) | GI50 [17]: 12.6 µM (inactive) | GI50 [18]: 20.6 µM (inactive) | GI50 [19]: 17.3 µM (inactive) | GI50 [20]: 19.2 µM (inactive) | GI50 [21]: 26.7 µM (inactive) | GI50 [23]: 14 µM (inactive) | GI50 [58]: 15.5 µM (inactive) | GI50 [24]: 16.1 µM (inactive) | GI50 [25]: 37.4 µM (inactive) | GI50 [26]: 20.4 µM (inactive) | GI50 [27]: 15.2 µM (inactive) | GI50 [28]: 15.2 µM (inactive) | GI50 [29]: 16.1 µM (inactive) | GI50 [30]: 28 µM (inactive) | GI50 [31]: 16.3 µM (inactive) | GI50 [33]: 13.1 µM (inactive) | GI50 [34]: 9.1 µM (inactive) | GI50 [35]: 11.4 µM (inactive) | GI50 [36]: 15.5 µM (inactive) | GI50 [37]: > 100 µM (inactive) | GI50 [38]: 10.6 µM (inactive) | GI50 [39]: 18.1 µM (inactive) | GI50 [40]: 18.5 µM (inactive) | GI50 [41]: 17.8 µM (inactive) | GI50 [42]: 18.3 µM (inactive) | GI50 [43]: 14.7 µM (inactive) | GI50 [44]: 21.2 µM (inactive) | GI50 [45]: 22.7 µM (inactive) | GI50 [46]: 13.8 µM (inactive) | GI50 [47]: 15 µM (inactive) | GI50 [48]: 17.5 µM (inactive) | GI50 [49]: 17 µM (inactive) | GI50 [50]: 15 µM (inactive) | GI50 [51]: 14.2 µM (inactive) | GI50 [52]: 19.8 µM (inactive) | GI50 [53]: 11.9 µM (inactive) | GI50 [54]: 19.1 µM (inactive) | GI50 [55]: 16.6 µM (inactive) | GI50 [56]: 12.7 µM (inactive) | GI50 [57]: 14.8 µM (inactive)

CC(C)(C)OC(=O)NC12C3C4C1C1C2C3C41NC(=O)OC(C)(C)C (configuration not stated)
GI50 [1]: 30.5 µM (inactive) | GI50 [2]: > 100 µM (inactive) | GI50 [3]: > 100 µM (inactive) | GI50 [4]: 79.3 µM (inactive) | GI50 [5]: 71.9 µM (inactive) | GI50 [6]: 26.9 µM (inactive) | GI50 [7]: 22.5 µM (inactive) | GI50 [8]: 50 µM (inactive) | GI50 [9]: 73.3 µM | GI50 [10]: > 100 µM (inactive) | GI50 [11]: > 100 µM (inactive) | GI50 [12]: 26 µM (inactive) | GI50 [13]: > 100 µM (inactive) | GI50 [17]: 39.4 µM (inactive) | GI50 [18]: 51.9 µM (inactive) | GI50 [19]: 54.3 µM (inactive) | GI50 [20]: 48.1 µM (inactive) | GI50 [21]: 50.6 µM (inactive) | GI50 [23]: 37.8 µM (inactive) | GI50 [58]: 57.4 µM (inactive) | GI50 [24]: 27.3 µM (inactive) | GI50 [25]: 23.7 µM (inactive) | GI50 [26]: 61.2 µM (inactive) | GI50 [27]: 36.1 µM (inactive) | GI50 [28]: > 100 µM (inactive) | GI50 [29]: > 100 µM (inactive) | GI50 [30]: 61.2 µM (inactive) | GI50 [31]: 43.1 µM (inactive) | GI50 [59]: 63.2 µM (inactive) | GI50 [32]: 26.5 µM (inactive) | GI50 [33]: 47.3 µM (inactive) | GI50 [34]: 15.2 µM (inactive) | GI50 [35]: > 100 µM (inactive) | GI50 [36]: 15.8 µM (inactive) | GI50 [37]: 50.4 µM (inactive) | GI50 [38]: 47.5 µM (inactive) | GI50 [39]: 62.8 µM (inactive) | GI50 [40]: 39.4 µM (inactive) | GI50 [41]: 51.4 µM (inactive) | GI50 [42]: 35.8 µM (inactive) | GI50 [43]: > 100 µM (inactive) | GI50 [44]: 50.5 µM (inactive) | GI50 [45]: 28.5 µM (inactive) | GI50 [46]: 21.3 µM (inactive) | GI50 [47]: 35.4 µM (inactive) | GI50 [48]: 42.6 µM (inactive) | GI50 [49]: 26.9 µM (inactive) | GI50 [50]: 68.1 µM (inactive) | GI50 [51]: 68.4 µM (inactive) | GI50 [52]: 19.7 µM (inactive) | GI50 [53]: 29.6 µM (inactive) | GI50 [54]: 88.5 µM (inactive) | GI50 [56]: 31 µM (inactive) | GI50 [57]: 35.6 µM (inactive)
